# Laboratory results as given in ChEMBL document CHEMBL1159079, “Pharmacophore modeling and virtual screening for designing potential 5-lipoxygenase inhibitors” (Bioorg Med Chem Lett, 2010).
# Assay: Inhibition of potato tuber 5LOX by polarographic method
# Parameters: species or system Solanum tuberosum
row,IC50,SMILES
1,22 µM,CCN(C)C(=O)c1cc(C(C)(C)C)c2c(c1)C(C)(C)CO2
2,49 µM,O=C1NCCN(c2cccc([N+](=O)[O-])c2)N1
3,2.7 µM,CC1CN(c2cccc(Cl)c2)NC(=O)N1 (centres undefined)
4,19 µM,O=C1NCCN(c2cccc(F)c2)N1
5,26 µM,O=C1NCCN(c2ccccn2)N1
6,14 µM,CSc1cccc(N2CCNC(=O)N2)c1
7,15 µM,Cc1cccc(N2CCNC(=O)N2)c1
8,14 µM,COCCOCC1CN(c2ccccc2)NC(=O)N1 (centres undefined)
9,0.014 µM,COC1(c2cccc(COc3ccc4c(-c5ccccc5)c5c(cc4c3)C(=O)OC5)c2)CCOCC1
10,0.04 µM,COc1ccc(C(=O)/C=C/c2ccc(O)c(O)c2)c(OC)c1
11,178 µM,Nc1cccc(N2CCNC(=O)N2)c1
12,68 µM,CC(C)(C)c1cc(C(=O)CCCC2CC2)cc2c1OCC2(C)C
13,8.5 µM,CCCC(=O)c1cc(C(C)(C)C)c2c(c1)C(C)(C)CO2
14,0.023 µM,CC1Cc2c(OCc3ccc(-c4ccccc4)cn3)ccc3c2c(c(CCOc2ccccc2CC(=O)O)n3Cc2cccc(F)c2)S1 (centres undefined)
15,8 µM,CC(C)(C)c1cc(C(=O)CCCC2CC2)cc2c1OCCC2(C)C
16,1 µM,CS(=O)(=O)c1ccc(C#CC(=O)c2ccccc2)cc1
17,0.14 µM,Cc1nccn1-c1ccc(Sc2cccc(C3(C(N)=O)CCOCC3)c2)cc1
18,41 µM,NS(=O)(=O)c1ccc(N2N=C(C(F)(F)F)CC2c2c[nH]c3ccccc23)cc1 (centres undefined)
19,1.5 µM,CC1(C)Cc2c(-c3ccccc3)c(-c3ccc([N+](=O)[O-])cc3)c(CC(=O)O)n2C1
20,1.6 µM,O=C(O)Cc1c(-c2ccc(Cl)cc2)c(-c2ccccc2)c2n1CCC2
21,0.77 µM,FC(F)(F)c1cccc(Nc2ccccc2-c2n[nH]c(=S)o2)c1
22,0.77 µM,FC(F)(F)c1cccc(Nc2ccccc2-c2n[nH]c(=S)s2)c1
23,2.5 µM,CCN1CC/C(=C/c2cc(C(C)(C)C)c(O)c(C(C)(C)C)c2)S1(=O)=O
24,12 µM,Cc1cc(C)cc(N2CCNC(=O)N2)c1
25,5.5 µM,COc1cccc(N2CC(C)NC(=O)N2)n1 (centres undefined)
26,21 µM,O=C1NCCN(c2ccccc2)N1
27,1.5 µM,CCCCC1CN(c2ccccc2)NC(=O)N1 (centres undefined)

row,IC50,SMILES
1,0.3 µM,CS(=O)(=O)c1ccc(C#CC(=O)c2cccc(O)c2)cc1
2,0.85 µM,COC1(c2cc(F)cc(OCCc3c[nH]c4ccccc34)c2)CCOCC1
3,0.003 µM,COC1(c2cc(F)cc(OCc3cc(-c4ccccc4)n(-c4ccc(S(C)(=O)=O)cc4)n3)c2)CCOCC1
4,0.4 µM,COc1ccc2c(c1)c(CCN(O)C(N)=O)c(C)n2C(=O)c1ccc(Cl)cc1
5,3.5 µM,NS(=O)(=O)c1ccc(C#Cc2ccc(=O)n(C(F)F)c2)cc1
6,0.35 µM,CS(=O)(=O)c1ccc(-n2nc(C(F)(F)F)cc2-c2ccn(O)c(=O)c2)cc1
7,4.9 µM,NS(=O)(=O)c1ccc(-n2nc(C(F)(F)F)cc2-c2ccn(O)c(=O)c2)cc1
8,15 µM,NS(=O)(=O)c1cccc(C#Cc2ccc(=O)n(O)c2)c1
9,20 µM,COc1ccc(-c2cnsc2-c2ccc(OC)cc2)cc1
10,3.3 µM,CS(=O)(=O)c1ccc(C#Cc2ccc(=O)n(C(F)F)c2)cc1
11,3.2 µM,CS(=O)(=O)c1cccc(C#Cc2ccc(=O)n(C(F)F)c2)c1
12,0.15 µM,CCOC(=O)c1c(Cc2ccc(OC)cc2)[nH]c2c1cc(O)c1ccccc12
13,1.2 µM,CCOC(=O)c1c(Cc2cccc(Cl)c2)[nH]c2cc(-c3ccccc3)c(O)cc12
14,0.3 µM,COC(=O)c1c(Nc2cccc(Cl)c2)[nH]c2ccc(O)cc12
15,10 µM,NS(=O)(=O)c1ccccc1C#Cc1ccc(=O)n(O)c1
16,10 µM,COc1ccc(-c2ssc(=S)c2-c2ccc(OC)cc2)cc1
17,9 µM,Cc1ccc(-c2c(-c3ccc(S(C)(=O)=O)cc3)ssc2=S)cc1
18,2 µM,CCOC(=O)c1c(Cc2cccc(Cl)c2)[nH]c2ccc(O)cc12
19,68 µM,NS(=O)(=O)c1ccc(C#Cc2ccc(=O)n(O)c2)cc1
20,8 µM,COc1ccc(-c2sncc2-c2ccc(C)cc2)cc1
21,3.4 µM,CS(=O)(=O)c1ccccc1C#Cc1ccc(=O)n(C(F)F)c1
22,0.016 µM,CC1Cc2c(CCc3ccc(-c4ccccc4)cn3)ccc3c2C(S1)C(CC(C)(C)Cc1nnn[nH]1)N3Cc1ccc(Cl)cc1 (centres undefined)
23,0.036 µM,CC1Cc2c(OCc3ccc(-c4ccccc4)cn3)ccc3c2C(S1)C(CC(C)(C)CC(=O)NS(C)(=O)=O)N3Cc1ccc(Cl)cc1 (centres undefined)
24,0.13 µM,CS(=O)(=O)Nc1ccc(Oc2ccc(F)cc2)s1
25,4.9 µM,O=C1NCCN(c2ccoc2-c2ccccc2)N1
26,0.37 µM,COc1cc(/C=C\C=C\c2nc3ncccc3o2)ccc1O
27,8.2 µM,O=C1NCCN(c2ncccc2-c2cccs2)N1

row,IC50,SMILES
1,0.74 µM,CC(C)(C)OC(=O)N1CCN(C(=O)CCCC2=CCc3ccccc32)CC1
2,30 µM,O=C1NCCN(c2cccnc2-c2ccccc2)N1
3,0.02 µM,CCOC(=O)c1ccc2oc(/C=C/C=C\c3ccc(O)c(O)c3)nc2c1
4,0.27 µM,NC(=O)C1(c2cccc(Sc3ccc(-n4cccc4)cc3)c2)CCOCC1
5,10 µM,Cc1ccc(-c2c(-c3ccc(S(C)(=O)=O)cc3)cn3c2CCC3)cc1
6,0.87 µM,O=C(CC1=CC(Cc2ccc(Cl)c(Cl)c2)c2ccccc21)N1CCOCC1 (centres undefined)
7,0.95 µM,CC1=C(CCCC(=O)N2CCOCC2)c2cc(Cl)ccc2C1Cc1ccccc1 (centres undefined)
8,7.5 µM,CC1(C)CCC[C@@]2(C)C1CCC(C=O)[C@@H]2CC=C(C=O)C=O (some centres undefined)
9,0.57 µM,COC1(c2cc(F)cc(OCC3=NN(c4ccccc4)C(c4ccccc4)C3)c2)CCOCC1 (centres undefined)
10,6 µM,CC(C)(C)c1cc(C(=O)CCCC#N)cc2c1OCC2(C)C
11,0.33 µM,COc1cc(/C=C\C=C\c2nc3ccccc3o2)ccc1O
12,0.13 µM,CCOC(=O)c1ccc2nc(/C=C/C=C\c3ccc(O)c(OC)c3)oc2c1
13,0.15 µM,COc1cc(O)cc(/C=C/C=C/C(=O)NCCN2CCC(OC(c3ccccc3)c3ccccc3)CC2)c1
14,2.06 µM,O=C(CCCC1=CCc2ccccc21)N1CCOCC1
15,68 µM,CC(C)(C)c1cc(Cc2cccs2)cc2c1OCC2(C)C
16,0.3 µM,COc1cc(/C=C\C=C\c2nc3ccc(CO)cc3o2)ccc1O
17,0.11 µM,CC(=O)Nc1ccc(/C(=C/c2ccc(S(C)(=O)=O)cc2)C(=O)O)cc1
18,0.01 µM,COC1(c2cccc(OCc3ccc4ccccc4c3)c2)CCOCC1
19,0.015 µM,N#Cc1cc(-c2ccoc2)c2ccc(OCc3cccc(C4(O)CCOCC4)n3)cc2c1
20,4 µM,O=C(O)/C=C/c1ccc(O)c(O)c1 [CAFFEIC ACID]
21,10 µM,Cc1ccc(-c2cc(C(F)(F)F)nn2-c2ccc(S(N)(=O)=O)cc2)cc1 [CELECOXIB]
22,0.18 µM,CC1(C)Cc2c(-c3ccccc3)c(-c3ccc(Cl)cc3)c(CC(=O)O)n2C1 [LICOFELONE]
23,10 µM,CS(=O)(=O)Nc1ccc([N+](=O)[O-])cc1OC1CCCCC1 [NS-398]
24,3 µM,C#CCCCC(=O)c1cc(C(C)(C)C)c(O)c(C(C)(C)C)c1 [TEBUFELONE]
25,0.33 µM,COC1(c2cc(F)cc(OCc3ccc4c(ccc(=O)n4C)c3)c2)CCOCC1 [ZD-2138]
